In patent US20210246455A1, “MULTIPLEX ASSAY” (priority 2017, published 2021):
Entries after “also recorded” stand apart in the source; their conditions may differ. Read-outs that look alike come from different tables or passages of the source.

What was measured:
[1] = system: 53BP1 foci (DNA double strand breaks) in U2OS^A:Tox^DUPR reporter cells; test: 53BP1-mCerulean foci per nuclei in U2OS^A:Tox^DUPR reporter cells; assay type: cell-based, human; settings: for number of 53BP1 foci per nuclei: exposed for 8 hr, compared to DMSO/vehicle
Description: U2OS acceptor cells were co-transfected a construct containing the recombinase B×b1 and a mutlicistronic Tox reporter (named U2OS^A:Tox^DUPR) carrying three fluorescently labeled proteins: 53BP1-mCerulean that binds to DNA double strand breaks, H2B-mCherry and XBP1Δ-Venus which is a UPR stress related sensor. […] NCS inhibits DNA synthesis, G2 cycle arrest, apoptosis. […] Cells were plated in glass bottom well 384 well plates. To evaluate the specificity of the reporter, together with DNA inducers, three other compounds were used as controls. Thapsigargin, which induced UPR-related stress by inhibiting calcium uptake into ER (Ca^2+ is chaperone cofactor so protein folding is inhibited), tunicamycin that is also involved in UPR-related stress by inhibiting glycosylation of newly synthesized proteins, and aphidicolin which inhibits DNA replication in eukaryotes. All compounds were tested in tetraplicates in four ten-fold serial dilutions with data collection 8 hour after compound addition. Images were acquired in a Nikon Ti-E inverted Microscope equipped with motorized stage with autofocus and OkoLab stage top environmental control chamber (supplied with CO2 and temperature controlled for live cell imaging) (FIG. 11A).
The number of 53BP1-mCerulean was used as a metric for double strand breaks and DNA damage. For each assay, the images were analyzed using the open source software CellProfiler for quantification of the number of foci per nuclei and the data generated was further processed to determine compound EC50S.
Image analysis was conducted using the open source software CellProfiler. After importing the images, nuclei were identified from the H2B-mCherry images as primary objects, followed by enhancement of mCerulean structures, and detection of these enhanced structures as objects. The nuclei and the foci are related and the number of children (foci) per nuclei is counted. Data from CellProfiler was exported to Python programming language for further computation.
Using Python, the data was grouped by well and the average number of foci/nuclei determined. The wells that corresponded to the same conditions were grouped. All the data was exported to GraphPad Prism 7.0 software to generate plots. A non-linear regression was used to fit the data and to calculate the concentration where we observe 50% activity of the enhancer (EC50S) (FIG. 11B)

[2] = system: Ras-MAPK pathway in HEK293 multicolor stable cell line expressing KRas(G12C), C-Raf, Mek and Erk reporters; test: Live-cell imaging of 4-color MAPK reporter cell line (reporter localization); assay type: cell-based, human; settings: for CRaf localization / Erk localization / KRas localization: treated for four or nine hours, relative to control
Description: The two-color stable cell lines were plated in 96 well glass-bottom plates overnight and treated with doxycycline at 1 μg/m1 to induce fluorescent reporter expression. Cells were treated with different compounds for four or nine hours. Cells were imaged with an epifluorescence Nikon™microscope with an OKOLab™ incubator system and images were acquired using a Plan Fluor™40× objective and NIS-Elements® software (Nikon™). An analogous procedure, using N-terminal tagged KRas(G12C), CRaf, Mek and Erk cloned into the multicistronic construct, was used to generate monoclonal, inducible 4-color cell lines with approximately balanced reporter construct expression level (FIG. 4 and FIG. 5, control)
The 4-color lines were used to visualize the MAPK pathway in live cells. HEK293 multicolor stable cell line expressing KRas(G12C), C-Raf, Mek and Erk reporters show correct localization of the 4 proteins at the plasma membrane, plasma membrane and cytoplasm, cytoplasm, nucleus, respectively (FIG. 5). Monitoring of cells under the microscope allowed visualization of the response to Ras-MAPK pathway inhibitors. To monitor response to inhibitors, after protein induction cell were treated with: GDC-0879, FR180204, lovastatin and PD0325901 for four or nine hours.

[3] = system: MAPK pathway activation (mCherry-Erk nuclear localization) in U2OS MAPK R19 cells expressing K-Ras(wt); test: MAPK reporter assay, nuclear versus cytoplasmic mCherry-Erk, U2OS MAPK R19; assay type: cell-based; settings: Homo sapiens, read-out: IC50 (inhibition of nuclear localization of mCherry-Erk)
Description: (§1) Three MAPK reporter cell lines were used to visualize the MAPK pathway in live cells and to analyze dose responses of MAPK inhibitors. U2OS MAPK R19, R20 and R21 multicolor stable cell line expressing mCerulean-CRaf, untagged Mek, mCherry-Erk and Venus-KRas (wt, G12C and G12D, respectively) were plated in glass bottom well 96 well plates. Twenty-four hours after plating cells were treated with doxycycline at 1 μg/ml for 5 h to induce fluorescent reporter expression. Monitoring of cells under the microscope allowed visualization of the response to Ras-MAPK pathway inhibitors. Two inhibitors, Trametinib an inhibitor of Mekl and […], inhibitor of Mek1/2 were used in the assay. […]
(§2) For each assay, the images were analyzed using CellProfiler (open source software for image analysis, Kamensty, L. et al., Bioinformatics (2011)) for quantification of the ratio of nuclear versus cytoplasmic Erk fluorescence intensity and the data generated was further processed to determine compound IC50S.
(§3) Image analysis used the open source software CellProfiler. […] The nuclear area of each cell was subtracted from the cytoplasm area to give the final cytoplasm mask. mCherry intensity for the nucleus and the cytoplasm of each cell was calculated from the original mCherry-Erk image and the nuclear to cytoplasm ratio of mCherry intensity was calculated per cell and exported as a HDFS file for analysis. […]

[4] = system: MAPK pathway activation (mCherry-Erk nuclear localization) in U2OS MAPK R20 cells expressing K-Ras(G12C); test: MAPK reporter assay, nuclear versus cytoplasmic mCherry-Erk, U2OS MAPK R20; assay type: cell-based; settings: Homo sapiens, read-out: IC50 (inhibition of nuclear localization of mCherry-Erk)
Description: as §1, §2, §3

[5] = system: MAPK pathway activation (mCherry-Erk nuclear localization) in U2OS MAPK R21 cells expressing K-Ras(G12D); test: MAPK reporter assay, nuclear versus cytoplasmic mCherry-Erk, U2OS MAPK R21; assay type: cell-based; settings: Homo sapiens, read-out: IC50 (inhibition of nuclear localization of mCherry-Erk)
Description: as §1, §2, §3

[6] = system: MAPK signaling in cells expressing K-Ras(wt), K-Ras(G12C) and K-Ras(G12D); test: Imaging of mCherry-Erk localization in U2OS^A-Tet MAPK R19, R20 and R21 reporter cell lines; assay type: cell-based, human; settings: exposed for 1 hr, compared to DMSO treated cells
Description: MAPK pathway inhibitors were tested for their ability to inhibit nuclear localization of mCherry-tagged ERK in three different cell lines expressing K-Ras wild type, K-Ras G12C or K-Ras G12D. To quantify these images we calculated the ratio of nuclear to cytoplasmic ERK in single cells for four images per sample and plotted the resulting values as a histogram.
as §1, §2

[7] = system: 53BP1 foci in Tox^DUPR reporter cells pooled with Tox^ORG reporter cells; test: Pooled assay, U2OS^A Tox^ORG and Tox^DUPR reporter cells mixed 1:1, 53BP1 foci per nuclei; assay type: cell-based, human
Description: U2OS^A:Tox^DUPR and U2OS^A:Tox^ORG were combined in a pooled assay with an aggregate of […] biosensors and phenotypic readouts (MTS-Venus, H2B-TagBFP, mCherry-LC3, 53BP1-cerulean, XBP1-Venus and H2B-mCherry) where DNA is differently labeled in each of the two reporter cell lines (FIG. 13).
The two U2OS^A Tox^ORG and Tox^DUPR reporter cell lines were mixed 1:1 and plated in 384 well plates 24 h before compound addition. […] NCS inhibits DNA synthesis, G2 cycle arrest, apoptosis. Both compounds are inducers of DNA double strand breaks and consequently increase the number of 53BP1 nuclear foci. Eight hours post compound addition, images were acquired in a Nikon Ti-E inverted Microscope equipped with motorized stage with autofocus and OkoLab stage top environmental control chamber (supplied with CO2 and temperature controlled for live cell imaging) (FIG. 14).

In the case of COc1cc([C@@H]2c3cc4c(cc3[C@@H](O[C@@H]3O[C@@H]5CO[C@@H](C)O[C@H]5[C@H](O)[C@H]3O)[C@H]3COC(=O)[C@H]23)OCO4)cc(OC)c1O [Etoposide], the EC50 ([1]; Homo sapiens, 8 hour after compound addition, read-out: EC50 (number of 53BP1 foci/nuclei)) is reported as 161 nM.

Nc1[nH]nc2nnc(-c3c(-c4ccccc4)nn4ccccc34)cc12 [FR180204] was tested, and the CRaf localization [2] was “moderate increase of CRaf levels at the plasma membrane”.

With CC[C@H](C)C(=O)O[C@H]1C[C@@H](C)C=C2C=C[C@H](C)[C@H](CC[C@@H]3C[C@@H](O)CC(=O)O3)[C@H]21 [Lovastatin] the “displacement of KRas from the cell membrane” value ([2]; ***p<0.0001) was “significant displacement of KRas from the cell membrane”, the CRaf localization [2] was “C-Raf is not enriched at the membrane” and the Erk localization [2] was “changes its localization to the cytoplasm”. For the same compound, the KRas localization [2] was “absence of KRas at the membrane”.

With O=C(NOC[C@H](O)CO)c1ccc(F)c(F)c1Nc1ccc(I)cc1F [PD 0329501] the IC50 ([3]; 1 h) was 9 nM, the IC50 ([4]; 1 h) was 13 nM and the IC50 ([5]; 1 h) was 76 nM. The mCherry-Erk localization [6] was “increase of mCherry-Erk at the cytoplasm”, the CRaf localization [2] was “none of Mek upstream proteins (KRas and C-Raf) showed alteration in localization” and the Erk localization [2] was “redistribution of the downstream effector, Erk, from the nucleus to the cytoplasm”. For the same compound, the KRas localization [2] was “none of Mek upstream proteins (KRas and C-Raf) showed alteration in localization”.

In the case of CC(=O)Nc1cccc(-n2c(=O)n(C3CC3)c(=O)c3c(Nc4ccc(I)cc4F)n(C)c(=O)c(C)c32)c1 [Trametinib], the IC50 ([3]; cells expressing K-Ras(wt), 1 hour after compound addition) is reported as 9 nM, the IC50 ([4]; cells expressing K-Ras(G12C), 1 hour after compound addition) is reported as 55 nM and the IC50 ([5]; cells expressing K-Ras(G12D), 1 hour after compound addition) is reported as 28 nM.

With C[C@@]1(CO)[C@H](O)CC[C@@]2(C)[C@H]1CC[C@H]1C[C@@H]3C[C@@]12CC[C@]3(O)CO [aphidicolin] the “number of 53BP1 foci per nuclei” value [1] was “do not show any effect in the number of 53BP1 foci”.

With C/C=C(/C)C(=O)O[C@H]1C(C)=C2[C@H]([C@@H]1OC(=O)CCCCCCC)[C@@](C)(OC(C)=O)C[C@H](OC(=O)CCC)[C@@]1(O)[C@H]2OC(=O)[C@@]1(C)O [thapsigargin, Thapsigargin] the “number of 53BP1 foci per nuclei” value [1] was “do not show any effect in the number of 53BP1 foci”.

For neocarzinostatin [NCS], the “EC50 (number of 53BP1 foci/nuclei)” value ([1]; 8 hour after compound addition) was 0.257 µg/mL, the “number of 53BP1 foci per nuclei” value [1] was “increase in the number of foci per nuclei” and the “EC50 (number of 53BP1 foci/nuclei)” value ([1]; reporter cells assayed by itself (FIG. 11B)) was 257 µg/mL. The “number of 53BP1 foci per nuclei” value ([7]; pooled Tox^ORG and Tox^DUPR cells, 8 hr, compared to vehicle) was “increase in the number of foci/nuclei specifically in Tox^DUPR reporter cells; also recorded: increase in the number of foci per nuclei” and the “EC50 (number of 53BP1 foci/nuclei)” value ([7]; pooled with other reporter cell lines (FIG. 14), eight hours post compound addition) was 376 µg/mL.

In the case of tunicamycin, the “number of 53BP1 foci per nuclei” value [1] is reported as “do not show any effect in the number of 53BP1 foci”.
